Assay results: US20080234188A1, “Antimicrobial Peptides” (The Hospital for Sick Children, priority 2001, published 2008)
Values after ≈ are worked out from the molar mass of the structure shown. Like-named read-outs stand apart in the source and are kept apart here. Where a SMILES comes first, the peptide text is derived from it. Where no end group is shown, it is not given here.

Tests used:
[1] = Hydrophobicity (hydropathy) from reverse-phase HPLC retention scale; assay type: physicochemical; set-up: key to Average Hydrophobicity of Core Sequence / Mean Core segment Hydrophobicity: arithmetic average of Table 1 hydropathy values of constituent residues; key to Hydropathy: hydropathy scale from HPLC retention times of model peptides (Table 1); conditions: for Mean residue hydropathy of X-residue peptide / Hydropathy: Table 1; for Hydropathy: of the X-residue, from HPLC retention of KKAAAXAAAAAXAAWAAXAAAKKKK-amide peptides; for Mean Core segment Hydrophobicity: Table 3
From the text: The “hydrophobicity value” of an amino acid residue means the hydrophobicity value of that residue as shown in Table 1 or as calculated by the method described herein.
The “hydrophobicity value” of an amino acid sequence or peptide means the arithmetic average of the individual hydrophobicity values of the constituent amino acid residues of the sequence.
Various hydrophobicity scales for proteins and amino acids have been described in the literature but the inventors have established the hydrophobicity scale of Table 1 based on the retention times on HPLC of a series of hydrophobic model peptides, as described in Liu and Deber (1998), Biopolymers (Peptide Science), v. 47, pp. 41-62).
The hydrophobicity value shown for each amino acid in Table 1 as “hydropathy” may be used as the hydrophobicity value for that amino acid in any peptide whose hydrophobicity value has to be calculated. The “average hydrophobicity” of a peptide containing amino acids shown in Table 1 is calculated by determining the arithmetic average of the Table 1 “hydropathy” values for the constituent amino acids of the sequence.
Peptides in accordance with the invention may also include other amino acids. For an amino acid not included in Table 1, the hydrophobicity value may be determined by the same method as described herein for obtaining the values of Table 1. For example, a peptide such as KKAAAXAAAAAXAAXAAXAAAKKKK-amide (Sequence ID No: 1) may be synthesized, where X is the amino acid whose hydrophobicity value is to be determined, and the retention time of the peptide on HPLC is determined, as described in the Examples. Similar peptides where X is Lys or Phe are also prepared and their HPLC retention times determined. The retention time, Rx, is converted to the hydropathy value H for the selected amino acid using the equation
H=(10×ΔtRx-Lys/ΔtRPhe-Lys)−5.00
where ΔtRx-Lys=retention time difference in minutes between Rx and the retention time of the most hydrophilic peptide tested (X=Lys) and where ΔtRPhe-Lys=retention time difference in minutes between the most hydrophobic peptide tested (X=Phe) and the most hydrophilic (X=Lys).
The retention time of each peptide was determined on a C4 reversed-phase column (4.6×250 mm, 300 A pore size, 10 μ particle size). Equal amounts of each peptide were injected into the column and eluted at a flow rate of 1 mL/min, utilizing a linear AB gradient (2% B/min), where buffer A was 0.1% TFA/ddH2O, and buffer B was 0.1% TFA/acetonitrile. The retention time of each peptide reported here was the average of triplicate measurements.

[2] = test system: Corynebacterium xerosis (C875); assay type: cell-based
From the text: (§1) The bacterial strains used were E. coli C498, E. coli C500, Escherichia coli UB1005 and its antibiotic supersusceptible derivative DC2 (22); a clinical isolate of Staphylococcus epidermidis (C621); coryneform bacterial strain Corynebacterium xerosis (C875); and E. coli ATCC 25922, Staphylococcus aureus ATCC 25923, Enterococcus faecalis ATCC 29212, Bacillus subtilis ATCC 6633 and Pseudomonas aeruginosa ATCC 27853, all from American Type Culture Collection.
(§2) Peptide antibacterial activity was assessed by the method of R. Hancock et al. (Wu & Hancock (1999), J. Biol. Chem., v. 274, pp. 29-35). Test strains of bacteria from Mueller Hinton agar (MHA) plates were inoculated into 5 ml Mueller Hinton Broth (MHB) in tubes and grown overnight at 37° C. on a shaker (180 rpm). Serial dilutions of test peptides (at 10 times the required test concentrations) were made in 0.01% acetic acid, 0.2% BSA, in polypropylene or coated glass tubes as follows: the test peptide was (a) dissolved in distilled water at 20 times the required maximum concentration (enough final volume for all tests to be performed on a given day); (b) diluted into an equal volume of 0.02% acetic acid, 0.4% BSA to give 10 times the required maximum concentration; (c) serial doubling dilutions were performed in 0.01% acetic acid, 0.2% BSA to provide serial dilutions of peptides at 10 times the required test concentrations, e.g., 640, 320, 160, . . . 2.5 μg/ml. (No deleterious effects of long-term storage of peptides in these media have been detected). Overnight bacterial cultures were diluted in MHB to give 2−7×10^5 colony forming units/ml. Bacterial suspension (100 μl) was dispensed in each well; controls without bacteria were maintained in parallel. To each well was added 11 μl of 10× test peptide and plates were incubated at 37° C. for 18-24 hours, and checked again at 40-48 hours. Plates were read visually and at 600 nm in a microplate reader (Molecular Devices).
(§3) were synthesized. The antibacterial activity of these peptides was determined against both Gram-positive bacteria ([…], Corynebacterium xerosis) and Gram-negative bacteria (various strains of E. coli). The results are shown in Table 2, along with the average hydrophobicity of each peptide, calculated as described herein.
(§4) A further number of the peptides of the invention were tested for antimicrobial activity against a range of Gram-positive and Gram-negative bacteria by the assay described immediately before Example 1.

[3] = test system: Staphylococcus epidermidis (C621); assay type: cell-based
From the text: as §1, §2, §3, §4

[4] = test system: E. coli DC2; experiment: Assay of antibacterial activity (MIC), E. coli DC2; assay type: cell-based, Escherichia coli; conditions: Table 3; Gram-negative
From the text: as §1, §2, §4

[5] = test system: E. coli UB1005; assay type: cell-based, Escherichia coli
From the text: as §1, §2, §4

Row | Molecule | Mean residue hydropathy of X-residue peptide [1] | Hydropathy [1] | MIC C. xerosis C875 [2] [µM] | MIC S. epidermidis C621 ([3]; C621) [µM] | MIC E. coli DC2 [4] [µM] | Mean Core segment Hydrophobicity [1] | MIC E. coli UB1005 ([5]; UB1005) [µM] | Antimicrobial activity, spectrum (in words) ([2]; Example 5, active on C. xerosis, not on the other bacteria tested) | MIC C. xerosis C875 ([2]; Table 3, Gram-positive) [µM] | MIC S. epidermidis C621 ([3]; Table 3, Gram-positive) [µM] | MIC E. coli UB1005 ([5]; Table 3, Gram-negative) [µM]
1 | K25: KKAAAXAAAAAXAAWAAXAAAKKKK-amide peptide with X = Lys, most hydrophilic peptide tested (KKAAAKAAAAAKAAWAAKAAAKKKK-NH2) [Peptide K25] | −0.40 | −5.00 |  |  |  |  |  |  |  |  | 
2 | C[C@H](NC(=O)[C@H](C)NC(=O)[C@H](C)NC(=O)[C@@H](NC(=O)[C@H](C)NC(=O)[C@H](C)NC(=O)[C@H](C)NC(=O)[C@H](CCCCN)NC(=O)[C@@H](N)CCCCN)[C@@H](C)O)C(=O)N[C@@H](C)C(=O)N[C@@H](C)C(=O)N[C@H](C(=O)N[C@@H](C)C(=O)N[C@@H](C)C(=O)N[C@@H](Cc1c[nH]c2ccccc12)C(=O)N[C@@H](C)C(=O)N[C@@H](C)C(=O)N[C@H](C(=O)N[C@@H](C)C(=O)N[C@@H](C)C(=O)N[C@@H](C)C(=O)N[C@@H](CCCCN)C(=O)N[C@@H](CCCCN)C(=O)N[C@@H](CCCCN)C(=O)N[C@@H](CCCCN)C(N)=O)[C@@H](C)O)[C@@H](C)O [T] (H-KKAAATAAAAATAAWAATAAAKKKK-NH2; N-terminus assumed) | 0.22 | −1.08 | >64 | >64 | >64 | 0.22 | >64 |  |  |  | 
3 | Asp: KKAAAXAAAAAXAAWAAXAAAKKKK-amide peptide with X-residue Asp (KKAAADAAAAADAAWAADAAAKKKK-NH2) | 0.00 | −2.49 |  |  |  |  |  |  |  |  | 
4 | C[C@H](NC(=O)[C@H](C)NC(=O)[C@H](C)NC(=O)[C@H](CC(N)=O)NC(=O)[C@H](C)NC(=O)[C@H](C)NC(=O)[C@H](C)NC(=O)[C@H](CCCCN)NC(=O)[C@@H](N)CCCCN)C(=O)N[C@@H](C)C(=O)N[C@@H](C)C(=O)N[C@@H](CC(N)=O)C(=O)N[C@@H](C)C(=O)N[C@@H](C)C(=O)N[C@@H](Cc1c[nH]c2ccccc12)C(=O)N[C@@H](C)C(=O)N[C@@H](C)C(=O)N[C@@H](CC(N)=O)C(=O)N[C@@H](C)C(=O)N[C@@H](C)C(=O)N[C@@H](C)C(=O)N[C@@H](CCCCN)C(=O)N[C@@H](CCCCN)C(=O)N[C@@H](CCCCN)C(=O)N[C@@H](CCCCN)C(N)=O [N] (H-KKAAANAAAAANAAWAANAAAKKKK-NH2; N-terminus assumed) | −0.16 | −3.79 | >64 | >64 | >64 | −0.21 | >64 |  |  |  | 
5 | C[C@H](NC(=O)CNC(=O)[C@H](C)NC(=O)[C@H](C)NC(=O)[C@H](C)NC(=O)[C@H](CCCCN)NC(=O)[C@@H](N)CCCCN)C(=O)N[C@@H](C)C(=O)N[C@@H](C)C(=O)N[C@@H](C)C(=O)N[C@@H](C)C(=O)NCC(=O)N[C@@H](C)C(=O)N[C@@H](C)C(=O)N[C@@H](Cc1c[nH]c2ccccc12)C(=O)N[C@@H](C)C(=O)N[C@@H](C)C(=O)NCC(=O)N[C@@H](C)C(=O)N[C@@H](C)C(=O)N[C@@H](C)C(=O)N[C@@H](CCCCN)C(=O)N[C@@H](CCCCN)C(=O)N[C@@H](CCCCN)C(=O)N[C@@H](CCCCN)C(N)=O [G] (H-KKAAAGAAAAAGAAWAAGAAAKKKK-NH2; N-terminus assumed) | −0.13 | −3.31 | >64 | >64 | >64 | −0.13 | >64 |  |  |  | 
6 | His: KKAAAXAAAAAXAAWAAXAAAKKKK-amide peptide with X-residue His (X = His; C-terminal amide) | −0.34 | −4.63 |  |  |  |  |  |  |  |  | 
7 | Gln: KKAAAXAAAAAXAAWAAXAAAKKKK-amide peptide with X-residue Gln (KKAAAQAAAAAQAAWAAQAAAKKKK-NH2) | −0.04 | −2.75 |  |  |  |  |  |  |  |  | 
8 | Pro: KKAAAXAAAAAXAAWAAXAAAKKKK-amide peptide with X-residue Pro (KKAAAPAAAAAPAAWAAPAAAKKKK-NH2) | −0.39 | −4.92 |  |  |  |  |  |  |  |  | 
9 | CC(C)[C@H](NC(=O)[C@H](C)NC(=O)[C@H](C)NC(=O)[C@H](C)NC(=O)[C@H](CCCCN)NC(=O)[C@@H](N)CCCCN)C(=O)N[C@@H](C)C(=O)N[C@@H](C)C(=O)N[C@@H](C)C(=O)N[C@@H](C)C(=O)N[C@@H](C)C(=O)N[C@H](C(=O)N[C@@H](C)C(=O)N[C@@H](C)C(=O)N[C@@H](Cc1c[nH]c2ccccc12)C(=O)N[C@@H](C)C(=O)N[C@@H](C)C(=O)N[C@H](C(=O)N[C@@H](C)C(=O)N[C@@H](C)C(=O)N[C@@H](C)C(=O)N[C@@H](CCCCN)C(=O)N[C@@H](CCCCN)C(=O)N[C@@H](CCCCN)C(=O)N[C@@H](CCCCN)C(N)=O)C(C)C)C(C)C [V] (H-KKAAAVAAAAAVAAWAAVAAAKKKK-NH2; N-terminus assumed) | 0.87 | 3.02 |  |  | >32 | 0.87 |  | activity against gram-positive C. xerosis only | 0.5 (≈ 1.17 µg/mL) | >32 | >32
10 | Glu: KKAAAXAAAAAXAAWAAXAAAKKKK-amide peptide with X-residue Glu (KKAAAEAAAAAEAAWAAEAAAKKKK-NH2) | 0.16 | −1.49 |  |  |  |  |  |  |  |  | 
11 | N=C(N)NCCC[C@H](N)C(=O)O [Arg] | −0.05 | −2.77 |  |  |  |  |  |  |  |  | 
